Laboratory results reported in patent US20090246169A1, “INDOLOPYRIDINES AS EG5 KINESIN MODULATORS” (priority 2006, published 2009).

What was measured:
[1] = biological target: T1, Eg5 kinesin motor domains (Homo sapiens, UniProt P52732); assay: Eg5 ATPase activity assay (Malachite green); format: biochemical; details: 300 μM ATP, 250 nM microtubules, 30 min room temperature, read-out: Inhibition of Eg5 activity, −log IC50 [mol/l] (converted)
T1 construct: The ATPase activity of Eg5 kinesin motor domains (Cytoskeleton, cat. No. EG01); purchased Cytoskeleton EG01
T1 sequence (P52732 18-359 limits assumed): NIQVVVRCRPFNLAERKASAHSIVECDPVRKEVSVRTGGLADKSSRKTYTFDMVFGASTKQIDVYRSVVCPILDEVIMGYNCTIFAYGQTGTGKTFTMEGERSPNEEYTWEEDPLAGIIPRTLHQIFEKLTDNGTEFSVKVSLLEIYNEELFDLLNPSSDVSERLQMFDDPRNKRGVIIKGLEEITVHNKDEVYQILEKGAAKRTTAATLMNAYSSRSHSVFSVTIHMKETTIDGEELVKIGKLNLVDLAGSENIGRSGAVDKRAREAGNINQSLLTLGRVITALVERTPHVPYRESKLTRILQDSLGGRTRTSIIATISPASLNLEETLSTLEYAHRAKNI
Protocol: The ATPase activity of Eg5 kinesin motor domains (Cytoskeleton, cat. No. EG01) can be used to monitor the effects of modulating agents. The test compounds are dissolved as 10 mM solutions in dimethylsulfoxide (DMSO). 2 μl of appropriate DMSO dilutions of the test compounds are added to each well of a 96 well flat bottom plate. Each compound dilution is tested as triplicates. The reagents are added and the final reaction of the standard assay contains 15 mM Pipes, pH 6.8, 5.0 mM MgCl2, 0.5 mM KCl, 1 mM EGTA, 0.1 mg/ml BSA, 1 μM Paclitaxel, 250 nM preformed microtubules (Cytoskeleton, cat. No. MT001), 300 μM ATP, and Eg5 protein (50 ng) in a reaction volume of 100 μl. The controls include buffer wells with ATP and 2% DMSO. Reactions are started by the addition of ATP, incubated at room temperature for 30 min., and terminated by removing 20 μl of the reaction volume and adding it to 80 μl of 1 M perchloric acid, followed by the addition of 80 μl Malachite green reagent. […] The reactions are incubated for a further 20 min. and then read at 615 nm.
The corresponding IC50 values of the compounds for Eg5 inhibition are determined from the concentration-effect curves.
Representative inhibitory values [measured as −log IC50 (mol/l)] determined in the aforementioned assay follow from the following table A, in which the numbers of the compounds correspond to the numbers of the examples.

[2] = system: RKO p27 colon adenocarcinoma cells, uninduced (proliferating); assay: Alamar Blue cell viability assay, RKO p27 uninduced (proliferating); format: cell-based; details: Homo sapiens, RKOp27; anti-proliferative/cytotoxic activity, 72 hours, without Ponasterone A; read-out: −log EC50 [mol/l] RKO p27 uninduced (proliferating) (converted)
Protocol: The anti-proliferative/cytotoxic activity of the compounds described herein can be tested on subclones of RKO human colon adenocarcinoma cells (Schmidt et al., Oncogene 19, 2423-2429; 2000) using the Alamar Blue cell viability assay (described in O'Brien et al. Eur J Biochem 267, 5421-5426, 2000). The compounds are dissolved as 10 mM solutions in DMSO and subsequently diluted in semi-logarithmic steps. DMSO dilutions are further diluted 1:100 into Dulbecco's modified Eagle's medium (DMEM) containing 10% fetal calf serum to a final concentration twice as much as the final concentration in the test. […] To determine the viability of the cells, 10 μl of an Alamar Blue solution (Biosource) are added and the fluorescence is measured at an extinction of 544 nm and an emission of 590 nm. […] Viabilities are expressed as % values. […]
(§1) To determine the cell cycle specific mode of action, subclones of RKO colon adenocarcinoma cells (RKOp21 or RKOp27 as described by Schmidt et al. in Oncogene 19, 2423-2429; 2000) are seeded into 96 well flat bottom plates at a density of 16000 cells per well in a volume of 50 μl per well in DMEM growth medium with 10% FCS containing 10 μM Ponasterone A. 24 hours after seeding the 50 μl each of the compound dilutions in DMEM medium are added into each well of the 96-well plate. […] Viabilities are expressed as % values. […]

[3] = system: RKO p27 colon adenocarcinoma cells, induced (arrested); assay: Alamar Blue cell viability assay, RKO p27 induced (arrested) by Ponasterone A; format: cell-based; details: Homo sapiens, RKOp27; anti-proliferative/cytotoxic activity, 72 hours, 10 μM Ponasterone A; read-out: −log EC50 [mol/l] RKO p27 induced (arrested) (converted)
Protocol: as §1, with “plate. Each compound dilution is tested as triplicates. Wells containing untreated control cells are filled with 50 μl DMEM medium containing 1% DMSO. The cells are then incubated with the substances for 72 hours at 37° C. in a humidified atmosphere containing 5% carbon dioxide. To determine the viability of the cells, 10 μl of an Alamar Blue solution (Biosource) are added and the fluorescence is measured at an extinction of 544 nm and an emission of 590 nm.” for “plate.”
Representative values for anti-proliferation/cytotoxicity [measured as −log EC50 (mol/l)] determined in the aforementioned assays follow from the following tables B1 and B2, in which the numbers of the compounds correspond to the numbers of the examples.

[4] = system: RKO p21 colon adenocarcinoma cells, uninduced (proliferating); assay: Alamar Blue cell viability assay, RKO p21 uninduced (proliferating); format: cell-based; details: Homo sapiens; anti-proliferative/cytotoxic activity, 72 hours, without Ponasterone A; read-out: −log EC50 [mol/l] RKO p21 uninduced (proliferating) (converted)
How it was run: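 Proliferating RKO subclones, no Ponasterone A inducer, seeded in DMEM/10% FCS and dosed after 24 h with semi-log dilutions in triplicate, 72 h at 37 °C, 5% CO2. Viability by Alamar Blue fluorescence (544/590 nm) vs untreated cells; EC50 from dose-response curves.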

Structure (SMILES) | EC50 [4] | other results
COc1ccc2[nH]c3c(c2c1)C[C@@]1(C)C(=O)N(CCN(C)C)C(=O)N1[C@@H]3c1ccccc1 (racemic) [Example 1, (3aSR,10RS)-2-(2-Dimethylamino-ethyl)-6-methoxy-3a-methyl-10-phenyl-3a,4,9,10-tetrahydro-2,9,10a-triaza-cyclopenta[b]fluorene-1,3-dione] |  | IC50 [1]: 31.6 nM; EC50 [2]: 63.1 nM; EC50 [3]: ≥ 10000 nM
COc1ccc2[nH]c3c(c2c1)C[C@@]1(C)C(=O)N(CCNCCO)C(=O)N1[C@@H]3c1ccccc1 (racemic) [Example 26, (3aSR, 10RS)-2-[2-(2-Hydroxy-ethylamino)-ethyl]-6-methoxy-3a-methyl-10-phenyl-3a,4,9,10-tetrahydro-2,9,10a-triaza-cyclopenta[b] fluorene-1,3-dione] | ≤ 1000 nM | 
CNCCCN1C(=O)N2[C@H](c3ccccc3)c3[nH]c4ccc(OC)cc4c3C[C@@]2(C)C1=O (racemic) [Example 73, (3aSR, 10RS)-6-Methoxy-3a-methyl-2-(3-methylamino-propyl)-10-phenyl-3a,4,9,10-tetrahydro-2,9,10a-triaza-cyclopenta[b]fluorene-1,3-dione] | ≤ 1000 nM | 
CCN(CC)CCN1C(=O)N2[C@H](c3ccccc3)c3[nH]c4ccc(OC)cc4c3C[C@@]2(C)C1=O (racemic) [Example 41, (3aSR, 10RS)-2-(2-Diethyl-amino-ethyl)-6-methoxy-3a-methyl-10-phenyl-3a,4,9,10-tetrahydro-2,9,10a-triaza-cyclopenta[b]fluorene-1,3-dione] | ≤ 1000 nM | 
CCNCCCN1C(=O)N2[C@H](c3ccccc3)c3[nH]c4ccc(OC)cc4c3C[C@@]2(C)C1=O (racemic) [Example 44, (3aSR, 10RS)-2-(3-Ethyl-amino-propyl)-6-methoxy-3a-methyl-10-phenyl-3a,4,9,10-tetrahydro-2,9,10a-triaza-cyclopenta[b]fluorene-1,3-dione] | ≤ 1000 nM | 
COc1ccc2[nH]c3c(c2c1)C[C@@]1(C)C(=O)N(CCN2CCOCC2)C(=O)N1[C@@H]3c1ccccc1 (racemic) [Example 40, (3aSR, 10RS)-6-Methoxy-3a-methyl-2-(2-morpholin-4-yl-ethyl)-10-phenyl-3a,4,9,10-tetrahydro-2,9,10a-triaza-cyclopenta[b]fluorene-1,3-dione] | ≤ 1000 nM | 
COc1ccc2[nH]c3c(c2c1)C[C@@]1(C)C(=O)N(CCN2CC=CCC2)C(=O)N1[C@@H]3c1ccccc1 (racemic) [Example 33, (3aSR, 10RS)-2-[2-(3,6-Dihydro-2H-pyridin-1-yl)-ethyl]-6-methoxy-3a-methyl-10-phenyl-3a,4,9,10-tetra-hydro-2,9,10a-triaza-cyclo-penta[b]fluorene-1,3-dione] | ≤ 1000 nM | 
COc1ccc2[nH]c3c(c2c1)C[C@@]1(C)C(=O)N(CCCn2ccnc2)C(=O)N1[C@@H]3c1ccccc1 (racemic) [Example 63, (3aSR, 10RS)-2-(3-Imidazol-1-yl-propyl)-6-methoxy-3a-methyl-10-phenyl-3a,4,9,10-tetrahydro-2,9,10a-triaza-cyclopenta[b]fluorene-1,3-dione] | ≤ 1000 nM | 
COc1ccc2[nH]c3c(c2c1)C[C@@]1(C)C(=O)N(CCCN2CC=CCC2)C(=O)N1[C@@H]3c1ccccc1 (racemic) [Example 67, (3aSR, 10RS)-2-[3-(3,6-Dihydro-2H-pyridin-1-yl)-propyl]-6-methoxy-3a-methyl-10-phenyl-3a,4,9,10-tetra-hydro-2,9,10a-triaza-cyclo-penta[b]fluorene-1,3-dione] | ≤ 1000 nM | 
COc1ccc2[nH]c3c(c2c1)C[C@@]1(C)C(=O)N(CCN)C(=O)N1[C@@H]3c1ccccc1 (racemic) [Example 13, (3aSR,10RS)-2-(2-Amino-ethyl)-6-methoxy-3a-methyl-10-phenyl-3a,4,9,10-tetrahydro-2,9,10a-triaza-cyclopenta[b]fluorene-1,3-dione] | ≤ 1000 nM | 
CCN(C)CCCN1C(=O)N2[C@H](c3ccccc3)c3[nH]c4ccc(OC)cc4c3C[C@@]2(C)C1=O (racemic) [Example 53, (3aSR, 10RS)-2-[3-(Ethyl-methyl-amino)-propyl]-6-methoxy-3a-methyl-10-phenyl-3a,4,9,10-tetrahydro-2,9,10a-triaza-cyclopenta[b] fluorene-1,3-dione] | ≤ 1000 nM | 
COc1ccc2[nH]c3c(c2c1)C[C@@]1(C)C(=O)N(CCCN(C)CCO)C(=O)N1[C@@H]3c1ccccc1 (racemic) [Example 46, (3aSR, 10RS)-2-{3-[(2-Hydroxy-ethyl)-methyl-amino]-propyl}-6-methoxy-3a-methyl-10-phenyl-3a,4,9,10-tetrahydro-2,9,10a-triaza-cyclopenta[b]fluorene-1,3-dione] | ≤ 1000 nM | 
